This is an account of results in patent US20040115790A1, “Method for production of secreted proteins in fungi” (priority 2001, published 2004).

Assay [1] deals with T. reesei Rut-C30. The experiment in a line: Metabolic labelling (35S-methionine): total protein synthesis and secretion in treated T. reesei cultures. In kind it is cell-based, Trichoderma reesei. The following applies: percentage of non-treated control cultures, 5 μM A23187, 50 μg/ml BFA or 10 mM DTT; for Total protein secretion rate: TCA insoluble radioactivity in culture supernatant.

In assay [2] the test system is T. reesei Rut-C30. The experiment in a line: Synthesis and secretion of labelled CBHI (2D gel, phosphorimager) in treated T. reesei cultures. In kind it is cell-based, Trichoderma reesei. Conditions: for CBHI synthesis rate / CBHI secretion rate: percentage of non-treated control cultures; for CBHI secretion rate: production into culture medium; for Minimum secretion time of CBHI: untreated cells 11 min. The procedure:
Proteins were metabolically labelled with ^35S-methionine using the methods described in (Pakula et al. 2000). The preparation of the samples and analysis of the labelled proteins were carried out essentially as in (Pakula et al. 2000). The labelling experiment was started after 10 min of addition of DTT or A23187 or after 15 min of addition of BFA. 1 mCi of [^35S]-methionine (Amersham S J 1015, in vivo cell labelling grade, 1000 Ci mmol^−1, 10 μCi μl^−1) was added to a 50 ml aliquot of the cultivation. Untreated cultures were labelled in parallel and in a similar manner. Samples of 2 ml were collected during a time course. Labelled total protein in cell extracts and culture supernatant was measured using scintillation counting of TCA insoluble material in the samples, and labelled specific proteins (e.g. CBHI) were analysed using 2D gel electrophoresis, and the proteins were quantified using a phosphorimager (Molecular Dynamics). The rates of protein synthesis and secretion, and the average synthesis time and minimum secretion time were determined as described in Pakula et al. 2000.
The effect of the treatments on the synthesis of extracellular proteins, specifically, and on their transport was studied using the major cellulase produced by the fungus, cellobiohydrolase I (CBHI), as a model protein. […] The effect of the treatment with the ionophore A23187 on protein transport was less pronounced. Formation of the full pI pattern of CBHI was delayed by 15-20 minutes compared to the control cells, and CBHI with full pattern of the pI forms was secreted into the culture medium but with a delay.
The labelled CBHI from samples of cell extract and culture supernatant at different time points of the labelling experiment was analysed in 2D gels and quantified using a phosphorimager (Molecular Dynamics). Parameters, such as the synthesis and secretion rate of CBHI (the amount of labelled protein produced per time unit) as well as the average synthesis time and the minimum secretion time of CBHI, were determined (for the method see Pakula et al. 2000). The quantification of the labelled CBHI during the labelling experiment is shown in FIG. 3, and the deduced parameters describing the synthesis and secretion of CBHI in these conditions are summarised in the Table 1. The average synthesis time of full-length CBHI was not affected in the DTT and BFA treated cultures, being in accordance with the result that total protein synthesis is not affected by these treatments (see above).

A further assay relates to A. niger AB4.1. The experiment in a line: Northern analysis of transcript levels in DTT treated A. niger cultures. In kind it is cell-based, Aspergillus niger. Conditions: 20 mM DTT. The method, then:
The Aspergillus niger strains used in the experiments were AB4.1 (van Hartingsveldt et al., 1987) and AS1.1 (Ngiam et al., 2000). Spores resuspended in 0.1% Tween 20 (Sigma, UK) were used to inoculate liquid cultures to a final density of 1×10^5 spores per ml of medium. The strains were maintained on potato dextrose agar slopes (Difco, USA) with a supplement of 10 mM uridine for A. niger AB4.1. Slopes were grown at 30° C. until they had sporulated and made fresh for each experiment. ACMS/N/P medium (Archer et al., 1990) was used for all the experiments involving liquid culture. A. niger AB4.1 cultures were again supplemented with 10 mM uridine. Cultures were grown in 100 ml aliquots of medium in 250 ml conical flasks at 25° C. and 150 rpm. In the DTT stress experiments, AB4.1 cultures were grown for 44 hours before addition of 1 ml of 2M DTT solution to give a final concentration of 20 mM. […]
Total RNA was extracted from 100 mg of freeze dried, ground mycelia using the RNeasy Plant Mini Kit (Qiagen, UK) according to the manufacturer's instructions. RNA was quantified by reading absorbances at 230, 260 and 280 nm on a Uvikon 850 spectrophotometer (Kontron Instruments, UK). Ratios of over 2.0 for the 260 nm:280 nm readings were accepted as being indicative of good quality RNA. RNA quality was also assessed by running samples on 7% formaldehyde gels (Sambrook et al., 1989). […]

The subject of assay [3] is T. reesei Rut-C30. The experiment in a line: Northern analysis of transcript levels in treated T. reesei cultures. Conditions: for Expression of the short form of hac1 mRNA: normalised with total hac1 signal.
Procedure: T. reesei strain Rut-C30 (Montenecourt & Eveleigh, 1979) was cultivated on minimal medium ((H4)2SO4 7.6 g l^−1, KH2PO4 15.0 g l^−1, MgSO4.7H2O 0.5 g l^−1, CaCl2.H2O 0.2 g l^−1, CoCl2 3.7 mg l^−1, FeSO4.7H2O 5 mg l^−1, ZnSO4.7H2O 1.4 mg l^−1, MnSO4.7H2O 1.6 mg l^−1, pH adjusted to 5.2 with KOH) that contained lactose 20 g l^−1 as a carbon source. Spore suspension with 2×10^7 spores (stored in −80° C. in 20% glycerol) was inoculated into 200 ml of the medium, grown in shake flasks at 28° C. with shaking at 210 rpm. After 4 days of cultivation the cultures were diluted 1/10 into fresh medium, grown further for 24 h, and treated either with 10 mM dithiothreitol (DTT), 50 μg/ml brefeldin A (BFA) or 5 μM Ca^2+-ionophore A23187. A corresponding volume of the solvent of the stock solution was added into the untreated control cultures (0.2% and 0.5% DMSO for the control cultures for A23187 and BFA treatment, respectively, and double distilled water for the control for DTT treatment).
For the Northern analysis mycelial samples were collected from cultures treated with DTT, BFA or A23187 and from the untreated control cultures after 0, 15, 30, 60, 90, 120, 240 and 360 minutes of the treatment. The first sample (the time point 0 min was withdrawn immediately before addition of DTT, BFA or A23187). The mycelium was filtered, washed with equal volume of 0.7% NaCl, frozen immediately in liquid nitrogen, and stored at −80° C. Total RNA was isolated using the Trizol™ Reagent (Gibco BRL) essentially according to manufacturer's instructions. Northern blotting and hybridisation was carried out according to standard procedures (Sambrook et al). Full-length cDNA of the genes were used as probes.
Northern analysis of the samples collected during the treatment with A23187, DTT or BFA was carried out to study the effect of the treatments at transcriptional level.
Setting [4] is: 5 μM A23187, 50 μg/ml BFA or 10 mM DTT.

Turning to `O[C@H](CS)[C@H](O)CS` (racemic) [DTT, dithiothreitol], the “Total protein secretion rate” value in the assay with T. reesei Rut-C30 [1] is 5%. Also, in the assay on T. reesei Rut-C30 [2] (setting [4]), the CBHI synthesis rate is reported as 4-24% and the CBHI secretion rate result was “no production of labelled CBHI into the culture medium was detected”. In addition, the “pdiA and bipA mRNA response” value in the assay with A. niger AB4.1 is reported as “rapid response”. Further, the “Levels of pepA mRNA” value in the assay with A. niger AB4.1 (control cultures show an increase) is on record as “no significant increase”. Further, in the assay on T. reesei Rut-C30 [3] (10 mM DTT), the “Expression level of sar1 and ypt1” value was “not affected”; the “Transcript level of xyn1 and hfb2” value is listed as “reduced”. Besides, the “Expression of the short form of hac1 mRNA” value (“Expression … of hac1 mRNA” below) in the assay with T. reesei Rut-C30 [3] was “expression of the shortened, actively translated form”.
In the case of `CNc1ccc2oc(C[C@H]3O[C@@]4(CC[C@H]3C)O[C@H]([C@H](C)C(=O)c3ccc[nH]3)[C@H](C)C[C@H]4C)nc2c1C(=O)O` [A23187], in the assay on T. reesei Rut-C30 [1] (TCA insoluble radioactivity in cell extracts), the “Total protein synthesis rate” value came out at 51%. In the assay with T. reesei Rut-C30 [1], the “Total protein secretion rate” value was 23%. In addition, in the assay with T. reesei Rut-C30 [2] (5 μM A23187), the “Delay of formation of the full pI pattern of CBHI compared to the control cells” value is given as 15-20 minutes, the “Increase of minimum secretion time of CBHI compared to the control cultures” value was determined as 10 min and the “Prolongation of synthesis time of CBHI compared to the control cultures” value fell in the range of 3 to 4 min. Further, in the assay on T. reesei Rut-C30 [2] (setting [4]), the CBHI synthesis rate is on record as 26%, the CBHI secretion rate is listed as 27% and the “Minimum secretion time of CBHI” value was found to be 21 min. The “Average time of CBHI synthesis” value in the assay with T. reesei Rut-C30 [2] (untreated cells 5.7 min, 5 μM A23187, 50 μg/ml BFA or 10 mM DTT) came out at 9 min. For the same molecule, the “Expression … of hac1 mRNA” value with T. reesei Rut-C30 [3] was “transient and rather weak expression”.
As to `C[C@H]1CCC/C=C/[C@@H]2C[C@H](O)C[C@H]2[C@H](O)/C=C/C(=O)O1` [BFA, brefeldin A], the “Total protein secretion rate” value with T. reesei Rut-C30 [1] is 5%. Moreover, in the assay on T. reesei Rut-C30 [2] (setting [4]), the CBHI synthesis rate was 52%, the CBHI secretion rate is listed as 4% and the “Minimum secretion time of CBHI” value came out at 69 min. The “Expression … of hac1 mRNA” value with T. reesei Rut-C30 [3] is listed as “expression of the shortened, actively translated form”.
